These results are taken from patent US20240383874A1, “BENZENE RING DERIVATIVE, AND COMPOSITION AND PHARMACEUTICAL USE THEREOF” (Xizang Haisco Pharmaceutical Co., Ltd., priority 2020, published 2024).

The test system of one data set is full-length AR (AR-FL). Kind of data set: Degradation experiment on full-length AR (AR-FL) in 22RV1 cells. The format is cell-based. The conditions noted are these: 24 h, relative to vehicle control. The protocol: (§1) Prostate cancer cells 22RV1 were purchased from ATCC, the cell medium was 1640+10% FBS, and the cells were cultured in an incubator at 37° C. under 5% CO2. On day 1, the cells in an exponential phase were collected. With a 1% css-FBS phenol red-free medium, the cell suspension was adjusted to a corresponding concentration and plated into a 6-well plate at 1 mL/well and 100000 cells/well. The next day, a 1% css-FBS phenol-free medium containing the compound to be tested was added, a 1% css-FBS phenol-free medium containing 0.2% DMSO was added to one well as DMSO vehicle control, and the 6-well plate was cultured in an incubator at 37° C. under 5% CO2. After 24 h, the cells were digested with pancreatin and collected into a 1.5 mL centrifuge tube. 15 μL of RIPA lysate (containing 1×protease inhibitor cocktail) was added to each well, and the cells were lysed on ice for 15 min and then centrifuged at 12000 g and 4° C. for 10 min. The supernatant protein samples were collected, and protein quantification was performed by a BCA method. AR-FL and AR-Vs were detected using fully automatic protein expression quantitative analysis, which involved diluting the protein to be tested to 1 mg/mL. 4 μL of the diluted protein samples were added to 1 μL of 5×Master Mix (provided in the kit), and the prepared samples were denatured at 95° C. for 5 min and placed on ice for use. The primary antibodies, AR (CST, 5153S) and β-actin (CST, 3700), were diluted with Antibody Diluent II (provided in the kit) at a dilution ratio of 1:20 and 1:200, respectively. The secondary antibody was a mixed goat anti-mouse and goat anti-rabbit secondary antibody in a ratio of 1:1, and the color development solution was a mixed solution of Lumino-S and Peroxide in a ratio of 1:1. The prepared reagents were successively added to an assay plate according to instructions of the kit and detected on an instrument. Western blot band processing was performed using “Compass for SW”, a fully automatic protein expression quantitative analysis software, in which western blot bands were automatically simulated based on signal values. The degradation rate of AR-FL (3) or AR-Vs (4) relative to vehicle control at different compound concentrations was calculated according to formulas (3) and (4), wherein AR-FLcompound was the relative peak area of AR-FL in the treated group, and AR-FLsolvent was the relative peak area of AR-FL in the vehicle control group; AR-Vscompound was the relative peak area of AR-Vs in the treated group, and AR-Vssolvent was the relative peak area of AR-Vs in the vehicle control group.
(§2) DC50 calculation: the compound concentration DC50 values at which the degradation rate of AR-FL or AR-Vs was 50% were calculated using OriginPro2015 software and analyzed using DoseResp function according to formula (3) or (4).

Data set [1] relates to AR splice variants (AR-Vs). The data set can be described thus: Degradation experiment on AR splice variants (AR-Vs) in 22RV1 cells. The format is cell-based. The settings on record: 24 h, relative to vehicle control. The protocol: as §1, §2
Another data set relates to 22RV1 cells. The data set can be described thus: Experiment 2 on inhibiting 22RV1 cell proliferation (7 days, CellTiter-Glo). The conditions noted are these: 1% css-FBS phenol red-free medium, incubated with compound 7 days, read-out: IC50 values on proliferation inhibition of 22RV1 cells. The format is cell-based. In a few lines:
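Survival measured by CellTiter-Glo after 7 days of compound exposure, normalised to DMSO controls, with IC50 fitted by dose-response. Cells (22RV1, 2000/well) were seeded overnight in 1% css-FBS phenol red-free medium before dosing.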
Background: Cellular ATP, detected with luciferase, serves as a proxy for viable cell number.

The nature of data set [2]: Pharmacokinetic test in rats. The format is in vivo. The conditions noted are these: rat, po; male SD rats, single dose i.g. 5 mg/kg, plasma, 0-24 h. The protocol: Test objective: in this test, a single dose of test compounds was administered to SD rats intragastrically, and the concentrations of the test compounds in plasma of the rats were measured to evaluate pharmacokinetic characteristics of the test compounds in the rats.
Test animals: male SD rats, 200-250 g, 6-8 weeks old, 3 rats/compound, purchased from Chengdu Dossy Experimental Animals Co., Ltd.
Test method: on the day of the test, 3 SD rats were randomly grouped according to their body weights. The animals were fasted with water available for 12 to 14 hours one day before the administration of a test compound, and were fed 4 hours after the administration.
Sampling: before and after the administration, 0.1 mL of blood was taken from the orbits of the rats under isoflurane anesthesia, and placed in an EDTAK2 centrifuge tube. Centrifugation was carried out at 5000 rpm at 4C for […], and the plasma was collected.
Time points for plasma collection in G1 group: 0, 5 min, 15 min, 30 min, 1 h, 2 h, 4 h, 6 h, 8 h, and 24 h.
Before analysis and detection, all samples were stored at −80° C. The samples were analyzed quantitatively by LC-MS/MS.

Counter-ions that a name gives are not always drawn. Like-named read-outs stand apart in the source and are kept apart here.

On to `CC(C)(c1ccc(OCc2ccnc(N3CCN(C4CCN(C5CN(c6ccc7c(c6)C(=O)N(C6CCC(=O)NC6=O)C7=O)C5)CC4)CC3)n2)cc1)c1cc(Cl)c(OCCCl)c(C#N)c1` (stereo not shown) [Compound 5 trifluoroacetate, 3-chloro-2-(2-chloroethoxy)-5-(2-(4-((2-(4-(1-(1-(2-(2,6-dioxopiperidin-3-yl)-1,3-dioxoisoindolin-5-yl)azetidin-3-yl)piperidin-4-yl)piperazin-1-yl)pyrimidin-4-yl)methoxy)phenyl)propan-2-yl)benzonitrile (Compound 5) trifluoroacetate], for which, in the data set with full-length AR (AR-FL), the “AR-FL Dmax % (maximum degradation rate)” value amounted to 52.5%.
On the same count and under the same terms, next, `Cn1c(=O)n(C2CCC(=O)NC2=O)c2cccc(CN3CC(N4CCC(N5CCN(c6nccc(COc7ccc(C(C)(C)c8cc(Cl)c(OCCCl)c(C#N)c8)cc7)n6)CC5)CC4)C3)c21` (stereo not shown) [Compound 6 trifluoroacetate, 3-chloro-2-(2-chloroethoxy)-5-(2-(4-((2-(4-(1-(1-((1-(2,6-dioxopiperidin-3-yl)-3-methyl-2-oxo-2,3-dihydro-1H-benzol[d]imidazol-4-yl)methyl)azetidin-3-yl)piperidin-4-yl)piperazin-1-yl)pyrimidin-4-yl)methoxy)phenyl)propan-2-yl)benzonitrile (Compound 6) trifluoroacetate]: 57.6%.
For the molecule `Cn1c(=O)n(C2CCC(=O)NC2=O)c2cccc(CN3CC(N4CCC(N5CCN(c6nccc(COc7ccc(C(C)(C)c8cc(Cl)cc(C#N)c8)cc7)n6)CC5)CC4)C3)c21` (stereo not shown) [Compound 9 trifluoroacetate, 3-chloro-5-(2-(4-((2-(4-(1-(1-((1-(2,6-dioxopiperidin-3-yl)-3-methyl-2-oxo-2,3-dihydro-1H-benzo[d]imidazol-4-yl)methyl)azetidin-3-yl)piperidin-4-yl)piperazin-1-yl)pyrimidin-4-yl)methoxy)phenyl)propan-2-yl)benzonitrile (Compound 9) trifluoroacetate], the “AR-FL Dmax % (maximum degradation rate)” value in the data set with full-length AR (AR-FL) is reported as 68.3%. In data set [1], the “AR-Vs Dmax % (maximum degradation rate)” value was 76.8%.
On to `CC(C)(c1ccc(OCc2ccnc(N3CCN(C4CCN(C5CN(c6ccc7c(c6)C(=O)N(C6CCC(=O)NC6=O)C7=O)C5)CC4)CC3)n2)cc1)c1cc(Cl)cc(C#N)c1` (stereo not shown) [Compound 10, 3-chloro-5-(2-(4-((2-(4-(1-(1-(2-(2,6-dioxopiperidin-3-yl)-1,3-dioxoisoindolin-5-yl)azetidin-3-yl)piperidin-4-yl)piperazin-1-yl)pyrimidin-4-yl)methoxy)phenyl)propan-2-yl)benzonitrile], for which the IC50 with 22RV1 cells is 562 nM. In data set [1], the “AR-Vs Dmax % (maximum degradation rate)” value is on record as 64%.
With `CCOc1c(Cl)cc(C(C)(C)c2ccc(OCc3ccnc(N4CCN(C5CCN(C6CN(Cc7cccc8c7n(C)c(=O)n8C7CCC(=O)NC7=O)C6)CC5)CC4)n3)cc2)cc1C#N` (stereo not shown) [Compound 18, 3-chloro-5-(2-(4-((2-(4-(1-(1-((1-(2,6-dioxopiperidin-3-yl)-3-methyl-2-oxo-2,3-dihydro-1H-benzo[d]imidazol-4-yl)methyl)azetidin-3-yl)piperidin-4-yl)piperazin-1-yl)pyrimidin-4-yl)methoxy)phenyl)propan-2-yl)-2-ethoxybenzonitrile], the “AR-FL Dmax % (maximum degradation rate)” value in the data set on full-length AR (AR-FL) turned out to be 53%. For the same molecule, the IC50 in the data set with 22RV1 cells was 452 nM. Moreover, the “AR-Vs Dmax % (maximum degradation rate)” value in data set [1] amounted to 91%.
In the case of `CC(C)(c1ccc(OCc2ccnc(N3CCC(CN4CCC(C5CCN(c6ccc(C(=O)NC7CCC(=O)NC7=O)nc6)CC5)CC4)CC3)n2)cc1)c1cc(Cl)cc(C#N)c1` (stereo not shown) [Compound 110 trifluoroacetate, 5-(1′-((1-(4-((4-(2-(3-chloro-5-cyanophenyl)propan-2-yl)phenoxy)methyl)pyrimidin-2-yl)piperidin-4-yl)methyl)-[4,4′-bipiperidin]-1-yl)-N-(2,6-dioxopiperidin-3-yl)picolinamide], in data set [2], the AUC(0-t) (usually the area under the concentration-time curve up to a stated or last time point) came to 563 ± 350 ng·h/mL. In addition, the IC50 in the data set with 22RV1 cells (Homo sapiens, 22Rv1, 168 h) was 446 nM. Further, the “AR-Vs Dmax % (maximum degradation rate)” value in data set [1] turned out to be 56%.
In the case of `Cn1c(=O)n(C2CCC(=O)NC2=O)c2cccc(CN3CCC(CN4CCC(C5CCN(c6nccc(COc7ccc(C(C)(C)c8cc(Cl)c(OCCCl)c(C#N)c8)cc7)n6)CC5)CC4)CC3)c21` (stereo not shown) [Compound 126 trifluoroacetate, 3-chloro-2-(2-chloroethoxy)-5-(2-(4-((2-(1′-((1-((1-(2,6-dioxopiperidin-3-yl)-3-methyl-2-oxo-2,3-dihydro-1H-benzo[d]imidazol-4-yl)methyl)piperidin-4-yl)methyl)-[4,4′-bipiperidin]-1-yl)pyrimidin-4-yl)methoxy)phenyl)propan-2-yl)benzonitrile], the “AR-FL Dmax % (maximum degradation rate)” value with full-length AR (AR-FL) came out at 98%. In data set [1], the “AR-Vs Dmax % (maximum degradation rate)” value was found to be 95%.
`CC(C)(c1ccc(OCc2ccnc(N3CCC4(CC3)CCN(C3CC5(CCN(c6ccc7c(c6)C(=O)N(C6CCC(=O)NC6=O)C7=O)CC5)C3)CC4)n2)cc1)c1cc(Cl)cc(C#N)c1` (stereo not shown) [Compound 128, 3-chloro-5-(2-(4-((2-(9-(7-(2-(2,6-dioxopiperidin-3-yl)-1,3-dioxoisoindolin-5-yl)-7-azaspiro[3.5]nonan-2-yl)-3,9-diazaspiro[5.5]undecan-3-yl)pyrimidin-4-yl)methoxy)phenyl)propan-2-yl)benzonitrile] returned an AUC(0-t) in data set [2] of 604 ± 149 ng·h/mL. Further, in the data set on 22RV1 cells, the IC50 worked out at 132 nM.
The matching figures for `CC(C)(c1ccc(OCc2ccnc(N3CCC4(CCN(CC5CC6(CCN(c7ccc8c(c7)C(=O)N(C7CCC(=O)NC7=O)C8=O)CC6)C5)CC4)CC3)n2)cc1)c1cc(Cl)cc(C#N)c1` (stereo not shown) [Compound 129, 3-chloro-5-(2-(4-((2-(9-((7-(2-(2,6-dioxopiperidin-3-yl)-1,3-dioxoisoindolin-5-yl)-7-azaspiro[3.5]nonan-2-yl)methyl)-3,9-diazaspiro[5.5]undecan-3-yl)pyrimidin-4-yl)methoxy)phenyl)propan-2-yl)benzonitrile]: 812 ± 304 ng·h/mL and 569 nM.
The matching figures for `CC(C)(c1ccc(OCc2ccnc(N3CCC(CN4CCC(C5CCN(c6ccc7c(c6)C(=O)N(C6CCC(=O)NC6=O)C7=O)CC5)CC4)C3)n2)cc1)c1cc(Cl)cc(C#N)c1` (stereo not shown) [Compound 130, 3-chloro-5-(2-(4-((2-(3-((1′-(2-(2,6-dioxopiperidin-3-yl)-1,3-dioxoisoindolin-5-yl)-[4,4′-bipiperidin]-1-yl)methyl)pyrrolidin-1-yl)pyrimidin-4-yl)methoxy)phenyl)propan-2-yl)benzonitrile]: 665 ± 264 ng·h/mL and 483 nM.
The like results for `CC(C)(c1ccc(OCc2ccnc(N3CCC(N4CCC(C5CCN(c6ccc7c(c6)C(=O)N(C6CCC(=O)NC6=O)C7=O)CC5)CC4)CC3)n2)cc1)c1cc(Cl)cc(C#N)c1` (stereo not shown) [Compound 131, 3-chloro-5-(2-(4-((2-(1″-(2-(2,6-dioxopiperidin-3-yl)-1,3-dioxoisoindolin-5-yl)-[4,1′:4′,4″-terpiperidin]-1-yl)pyrimidin-4-yl)methoxy)phenyl)propan-2-yl)benzonitrile] were, in that order, 446 ± 225 ng·h/mL and 507 nM.
